Laboratory results from patent US9056844B2, “4-substituted-3-benzyloxy-bicyclo[3.1.0]hexane compounds as mGluR 2/3 antagonists” (Eli Lilly and Company, priority 2010, dated 2015).

What was measured:
human mGlu3 receptors = target: T1, human mGlu3 receptors (Homo sapiens, UniProt Q14832); experiment: mGlu3 receptor cAMP antagonist assay; type: cell-based; conditions: reversal of DCG IV (EC90) inhibition of forskolin-stimulated cAMP; AV12 cells
T1 construct: expressed in transfected cells; host or cells: AV12 cells, co-expressing rat EAAT1
Procedure: mGlu2 and mGlu3 Receptor cAMP Antagonist Assays
Antagonist activity is assayed in recombinant AV12 cells stably expressing human mGlu2 or mGlu3 receptors and the rat glutamate transporter EAAT1 (Excitatory Amino Acid Transporter 1). The cell lines are maintained by culturing in DMEM with high glucose and pyridoxine hydrochloride supplemented with 5% dialyzed fetal bovine serum (FBS), 1 mM sodium pyruvate, 1 mM HEPES and 1 mM L-glutamine; geneticin and hygromycin B are used as selection antibiotics. Confluent cultures are grown at 37° C. in an atmosphere containing 6.5% CO2, and passaged biweekly. Cells are harvested using 0.25% trypsin, suspended in freeze media (FBS with 10% DMSO) at 10^7 cells/ml, and aliquots are stored in liquid nitrogen. Twenty-four hours before the assay, cells are plated at a density of 8,000-10,000 cells per well in a tissue culture treated, 96-well, half-area black plates (Costar 3875) in 50 μl of DMEM with high glucose and pyridoxine hydrochloride supplemented with 5% dialyzed FBS, 1 mM sodium pyruvate, 1 mM HEPES, 100 μg/ml ampicillin, and 250 μM (mGlu2) or 125 μM (mGlu3) of L-glutamine.
Reversal of the inhibition of forskolin-stimulated cAMP production by test compounds is measured using homogeneous time resolved fluorescence technology (HTRF; Cisbio cat #62AM4PEB). The medium is removed and the cells are incubated with 100 μl cAMP stimulation buffer (STIM) for 30 minutes at 37° C. (STIM buffer contains 500 ml HBSS, 1000 ml DPBS, 0.034% BSA, 1.67 mM HEPES and 500 μM IBMX (Sigma 15879).) Compounds are tested in 10-point concentration response curves using 3× serial dilution followed by further 40-fold dilution into STIM buffer. DCG IV (Tocris 0975) serves as the reference agonist. The final reaction mixture contains 1 μM (for mGlu2) or 3 μM (for mGlu3) of forskolin (Sigma F6886), DCG IV at its EC90, and up to 25 μM of test compound. Cells are incubated at 37° C. for 20 minutes. To measure the cAMP levels, cAMP-d2 conjugate and anti cAMP-cryptate conjugate in lysis buffer are incubated with the treated cells at room temperature for 1 hour (mGlu2) or 1.5 hour (mGlu3). The HTRF signal is detected using an EnVision plate reader (Perkin-Elmer) to calculate the ratio of fluorescence at […]. The raw data are converted to cAMP amount (pmole/well) using a cAMP standard curve generated for each experiment. Relative IC50 values are calculated from the top-bottom range of the concentration response curve using a four-parameter logistic curve fitting program (ActivityBase v5.3.1.22).

human mGlu6 receptor = target: T2, human mGlu6 receptor (Homo sapiens, UniProt O15303); experiment: mGlu6 cAMP antagonist assay (reference agonist L-AP4); type: cell-based; conditions: cAMP format
T2 construct: expressed in transfected cells; host or cells: AV12 cells, co-expressing rat EAAT1
Source text: FLIPR and cAMP Assays for mGlu Receptor Selectivity
The relative antagonist potencies of the compounds of the invention for the other human mGlu receptors can be assessed with either a cAMP assay or fluorometric calcium response assay (see for example Fell et al., JPET (in press)). Briefly, individual AV12 cell lines containing the rat EAAT1 glutamate transporter and stably expressing the human mGlu1, 2, 3, 4, 5, 6, & 8 receptors are used for these studies. The mGlu1 and 5 receptors are […], so they naturally signal through phospholipase C, producing a calcium flux response which can be used to measure receptor activation using a Fluorometric Imaging Plate Reader (FLIPR, Molecular Devices). The cell lines expressing the mGlu2, 3, 4, and 8 receptor are designed to express the Gα15 subunit so that these Gi-coupled receptors will generate a calcium flux response similar to the mGlu1 and 5 receptor expressing cell lines. The mGlu6 receptor is tested in a cAMP format using methods analogous to those developed for mGlu2 and mGlu3 above. These cell lines are maintained as previously described except that amounts of L-glutamine and selection agents (geneticin, hygromycin B, zeocin, and blasticidin) may vary depending on the cell line. Confluent cultures are passaged biweekly.
Antagonist activity in mGlu6 cells is measured using cAMP in a method analogous to that described above for mGlu2 and mGlu3 activity, except that the reference agonist was L-AP4 (Tocris). […] Relative IC50 and EC50 values are calculated from the top-bottom range of the concentration response curve using a four-parameter logistic curve fitting program (ActivityBase v5.3.1.22).

male NIH-Swiss mice = experiment: Forced-swim test in mice (mFST); type: in vivo, mouse; conditions: for ED60: Mus musculus, ip, immobility in last 4 min of 6 min; for Maximal Decrease (1 − compound/control) * 100%: i.p., immobility time
Summary of the method: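 Male NIH-Swiss mice (25-30 g), acclimated ≥1 h, were dosed i.p. in water with minimal NaOH (R^1/R^2 both H) or orally in 2.0-2.5% NMP suspended in 1% HEC/0.25% Tween 80/0.05% antifoam (other analogues). Mice swam 6 min in 6 cm water at 22-25° C; immobility was scored over the last 4 min.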

T1 sequence (Q14832 23-879): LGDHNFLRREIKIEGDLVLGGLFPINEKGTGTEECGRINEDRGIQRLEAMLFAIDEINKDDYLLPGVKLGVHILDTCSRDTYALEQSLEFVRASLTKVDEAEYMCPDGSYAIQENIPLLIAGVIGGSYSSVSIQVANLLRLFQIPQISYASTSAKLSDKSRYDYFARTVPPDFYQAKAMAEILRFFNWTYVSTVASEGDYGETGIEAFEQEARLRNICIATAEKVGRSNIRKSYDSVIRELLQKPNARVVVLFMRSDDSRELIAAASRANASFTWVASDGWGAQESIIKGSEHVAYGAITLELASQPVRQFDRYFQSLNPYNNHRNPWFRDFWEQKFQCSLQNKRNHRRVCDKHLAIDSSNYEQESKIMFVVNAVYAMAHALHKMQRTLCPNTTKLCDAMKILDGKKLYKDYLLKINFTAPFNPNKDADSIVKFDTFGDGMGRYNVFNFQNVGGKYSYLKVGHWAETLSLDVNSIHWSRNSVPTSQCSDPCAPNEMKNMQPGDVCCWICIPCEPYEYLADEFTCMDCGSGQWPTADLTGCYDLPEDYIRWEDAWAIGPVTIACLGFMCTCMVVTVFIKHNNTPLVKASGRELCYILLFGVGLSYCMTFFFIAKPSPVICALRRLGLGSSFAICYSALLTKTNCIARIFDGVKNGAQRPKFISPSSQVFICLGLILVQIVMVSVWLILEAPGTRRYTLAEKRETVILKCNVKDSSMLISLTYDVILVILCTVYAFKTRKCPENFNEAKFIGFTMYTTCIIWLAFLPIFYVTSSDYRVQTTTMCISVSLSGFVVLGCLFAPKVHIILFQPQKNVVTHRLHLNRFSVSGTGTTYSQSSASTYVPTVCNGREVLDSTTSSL
T2 sequence (O15303 25-877): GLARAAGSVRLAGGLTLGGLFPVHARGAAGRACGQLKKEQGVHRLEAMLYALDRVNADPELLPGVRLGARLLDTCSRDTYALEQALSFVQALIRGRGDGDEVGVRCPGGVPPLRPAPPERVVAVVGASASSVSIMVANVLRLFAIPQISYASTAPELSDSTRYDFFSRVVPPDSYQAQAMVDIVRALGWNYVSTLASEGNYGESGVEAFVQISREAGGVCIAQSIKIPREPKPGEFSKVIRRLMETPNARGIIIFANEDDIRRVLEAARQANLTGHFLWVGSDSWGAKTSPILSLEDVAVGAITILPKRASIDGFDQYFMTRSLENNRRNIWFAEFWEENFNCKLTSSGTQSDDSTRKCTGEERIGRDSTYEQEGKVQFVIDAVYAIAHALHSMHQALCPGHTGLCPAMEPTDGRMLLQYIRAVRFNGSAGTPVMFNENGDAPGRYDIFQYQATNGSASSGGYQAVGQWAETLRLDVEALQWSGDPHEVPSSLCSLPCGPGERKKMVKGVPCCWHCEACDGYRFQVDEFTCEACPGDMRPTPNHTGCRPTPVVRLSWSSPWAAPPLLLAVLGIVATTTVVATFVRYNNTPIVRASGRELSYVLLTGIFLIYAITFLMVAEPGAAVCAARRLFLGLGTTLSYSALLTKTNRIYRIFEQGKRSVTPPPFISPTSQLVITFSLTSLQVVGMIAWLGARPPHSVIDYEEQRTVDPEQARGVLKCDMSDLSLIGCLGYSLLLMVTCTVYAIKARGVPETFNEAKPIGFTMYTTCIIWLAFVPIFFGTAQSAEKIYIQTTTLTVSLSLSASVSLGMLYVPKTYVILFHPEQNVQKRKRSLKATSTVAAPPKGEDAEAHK

IC50 (human mGlu3 receptors) [nM]	IC50 (human mGlu6 receptor) [nM]	SMILES	ED60 (male NIH-Swiss mice) [mg/kg]	Maximal Decrease (1 − compound/control) * 100% (male NIH-Swiss mice) [%]
27.2 ± 4.2	3300	N[C@]1(C(=O)O)[C@@H]2[C@@H](C(=O)O)[C@@H]2[C@H](O)[C@H]1OCc1ccc(Cl)c(Cl)c1 [Example 1, (1S,2R,3S,4S,5R,6R)-2-Amino-3-[(3,4-dichlorobenzyl)oxy]-4-hydroxybicyclo[3.1.0]hexane-2,6-dicarboxylic acid]	1	59
7.8	1290 ± 162	N[C@]1(C(=O)O)[C@@H]2[C@@H](C(=O)O)[C@@H]2[C@H](Sc2nc[nH]n2)[C@H]1OCc1ccc(Cl)c(Cl)c1 [Example 2, (1R,2R,3S,4S,5R,6R)-2-Amino-3-[(3,4-dichlorobenzyl)oxy]-4-(1H-1,2,4-triazol-3-ylsulfanyl)bicyclo[3.1.0]hexane-2,6-dicarboxylic acid]	2.08	62
34.8 ± 6.9	3690	Cl.Cn1cnc(S[C@H]2[C@H]3[C@H](C(=O)O)[C@H]3[C@](N)(C(=O)O)[C@@H]2OCc2ccc(Cl)c(Cl)c2)n1 [Example 7, (1R,2R,3S,4S,5R,6R)-2-Amino-3-[(3,4-dichlorophenyl)methoxy]-4-[(1-methyl-1,2,4-triazol-3-yl)sulfanyl]bicyclo[3.1.0]hexane-2,6-dicarboxylic acid hydrochloride.]	> 10	18
4.4 ± 0.5	2820	Cl.N[C@]1(C(=O)O)[C@@H]2[C@@H](C(=O)O)[C@@H]2[C@H](NC(=O)CO)[C@H]1OCc1ccc(Cl)c(Cl)c1 [Example 9, (1S,2R,3R,4S,5R,6S)-2-Amino-3-[(3,4-dichlorobenzyl)oxy]-4-[(hydroxyacetyl)amino]bicyclo[3.1.0]hexane-2,6-dicarboxylic acid hydrochloride]	9.68	41

SMILES	IC50 (human mGlu3 receptors) [nM]	IC50 (human mGlu6 receptor) [nM]	ED60 (male NIH-Swiss mice) [mg/kg]	Maximal Decrease (1 − compound/control) * 100% (male NIH-Swiss mice) [%]
CC(=O)N[C@H]1[C@H]2[C@H](C(=O)O)[C@H]2[C@](N)(C(=O)O)[C@@H]1OCc1ccc(Cl)c(Cl)c1 [Example 4, (1S,2R,3R,4S,5R,6S)-4-(Acetylamino)-2-amino-3-[(3,4-dichlorobenzyl)oxy]bicyclo[3.1.0]hexane-2,6-dicarboxylic acid]	8.2 ± 0.3	2640 ± 424	9.5	38
